Assay results taken from paper PMC11811597, “Phenomics‐Based Discovery of Novel Orthosteric Choline Kinase Inhibitors” (Angewandte Chemie (International Ed. in English), 2025).

Tests used:
Assay in all cases: PISA thermal profiling, intact HepG2 cells
Type in all cases: cell-based
[1] = target: T1, TGOLN2 (Homo sapiens, UniProt O43493); conditions: 30 µM, 60 min, n=3
T1 construct: endogenous in cells; host or cells: intact HepG2 cells
Method: (§1) To further corroborate our findings, we next performed the proteome integral solubility alteration (PISA) assay in HepG2 human hepatoma cells that express high levels of CHKA. Conceptually building on the cellular thermal shift assay (CETSA) with mass spectrometry based detection,[19, 20] PISA leverages compound‐mediated stabilisation of target proteins without the need of chemical modification in intact cells. […]
(§2) Experiments were performed as described earlier with few modifications. In short, 3 replicates of intact HepG2 cells were treated with 30 µM UNC0638, UNC373 or corresponding volume of DMSO in medium-free experimental buffer for 60 min at 37 °C with end-over-end rotation. For lysates: Washed […]
(§3) end-over-end rotation. Each treated cell suspension or lysate was divided into 12 aliquots and subjected to a 12-step heat gradient from 44 °C to 64 °C. All the temperature points were pooled together to form […] individual samples. Soluble fraction was separated from precipitated proteins […]
(§4) by centrifugation at 30,000 × g for 20 min at 4 °C. The soluble fractions were collected to fresh tubes and further processed to be analysed with mass spectrometry. Sample handling, TMT labelling, LC-MS/MS analysis, protein identification and data analysis was performed as described earlier.[12] […]
(§5) […]

[2] = target: T2, SCARB2 (Homo sapiens, UniProt Q14108); conditions: 30 µM, 60 min, n=3
T2 construct: endogenous in cells; host or cells: intact HepG2 cells
Method: as §1, §2, §3, §4, §5

[3] = target: CHKA (Homo sapiens, UniProt P35790); set-up: endogenous in cells; host or cells: intact HepG2 cells; conditions: 30 µM; for effect_CETSA_Intact (PISA amplitude), CHKA: 60 min, n=3
Method: as §1
Experiments were performed as described earlier with few modifications. In short, 3 replicates of intact HepG2 cells were treated with 30 µM UNC0638, […] or corresponding volume of DMSO in medium-free experimental buffer for 60 min at 37 °C with end-over-end rotation. For lysates: Washed K562 cells were resuspended in medium-free experimental buffer and lysed by three freeze-thaw cycles. Lysate was centrifugated 20,000 × g for 20 min at 4 °C to remove cell debris. The cleared lysate was treated with 30 µM UNC0638, UNC0373 or corresponding volume of DMSO for 15 min at RT with end-over-end rotation. Each treated cell suspension or lysate was divided into 12 aliquots and subjected to a 12-step heat gradient from 44 °C to 64 °C. All the temperature points were pooled together to form […] individual samples. Soluble fraction was separated from precipitated proteins […]
as §4
Biosciences) was used for data analysis. The blood was obtained under an approved ethical review from the Regional Ethical Review Board in Stockholm, approval number 2015/2001-31/2. The donors gave their consent to participate after written and oral information.

[4] = target: T3, GVINP1 (Homo sapiens, UniProt Q7Z2Y8); conditions: 30 µM, 60 min, n=3
T3 construct: endogenous in cells; host or cells: intact HepG2 cells
Text: as §1
carried out using REFMAC[9] and COOT,[10] and concluded when no improvements resulted for Rfree and Rwork values, and when density maps indicated no further changes were justified.
Choline Coupled Enzymatic Assay
CHKA (120 ng, 24 µg/ml) was arrayed (5 µL) into a 96 well semi-skirted real time PCR plate. 4-fold dilution series and vehicle controls (0.5% DMSO) were prepared in a separate plate. A further DMSO control was included for use with a no protein well control. […]
After mixing, bubbles were removed by centrifugation (1000 × g, 1 min) and absorbance read at 340 nm on a PheraSTAR FSX (BMG Labtech), reading every minute for 10 min. […]
by centrifugation at 30,000 × g for 20 min at 4 °C. The soluble fractions were collected to fresh tubes and further processed to be analysed with mass spectrometry. […]
Sample preparation for the quantification of metabolites by nuclear magnetic resonance (NMR) spectroscopy was performed as described previously.[13] […]

Chain of CHKA (P35790 whole entry): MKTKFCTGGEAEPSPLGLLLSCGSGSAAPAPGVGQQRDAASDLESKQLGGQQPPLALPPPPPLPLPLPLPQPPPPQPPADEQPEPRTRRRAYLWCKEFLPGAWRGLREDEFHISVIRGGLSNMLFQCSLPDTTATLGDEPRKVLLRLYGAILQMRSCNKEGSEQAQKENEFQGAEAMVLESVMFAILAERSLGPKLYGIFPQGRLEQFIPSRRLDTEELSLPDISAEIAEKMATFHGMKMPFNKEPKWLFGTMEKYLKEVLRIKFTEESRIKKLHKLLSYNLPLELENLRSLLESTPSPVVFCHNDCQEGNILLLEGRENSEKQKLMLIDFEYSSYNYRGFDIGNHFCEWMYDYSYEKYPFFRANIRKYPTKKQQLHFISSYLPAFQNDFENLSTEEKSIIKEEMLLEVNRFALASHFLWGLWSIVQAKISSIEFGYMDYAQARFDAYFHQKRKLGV
T1 sequence (O43493 22-437): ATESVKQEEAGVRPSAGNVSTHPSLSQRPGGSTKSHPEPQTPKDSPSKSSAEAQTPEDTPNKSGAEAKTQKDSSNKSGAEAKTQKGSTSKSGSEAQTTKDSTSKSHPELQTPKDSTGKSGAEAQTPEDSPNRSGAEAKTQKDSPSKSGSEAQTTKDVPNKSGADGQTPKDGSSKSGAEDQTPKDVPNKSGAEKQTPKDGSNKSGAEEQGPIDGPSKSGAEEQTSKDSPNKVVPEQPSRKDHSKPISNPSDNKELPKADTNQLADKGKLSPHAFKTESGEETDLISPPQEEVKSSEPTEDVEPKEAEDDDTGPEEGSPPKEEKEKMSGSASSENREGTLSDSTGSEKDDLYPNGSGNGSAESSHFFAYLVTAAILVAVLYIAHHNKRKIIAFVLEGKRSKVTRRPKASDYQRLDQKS
T3 sequence (Q7Z2Y8 whole entry): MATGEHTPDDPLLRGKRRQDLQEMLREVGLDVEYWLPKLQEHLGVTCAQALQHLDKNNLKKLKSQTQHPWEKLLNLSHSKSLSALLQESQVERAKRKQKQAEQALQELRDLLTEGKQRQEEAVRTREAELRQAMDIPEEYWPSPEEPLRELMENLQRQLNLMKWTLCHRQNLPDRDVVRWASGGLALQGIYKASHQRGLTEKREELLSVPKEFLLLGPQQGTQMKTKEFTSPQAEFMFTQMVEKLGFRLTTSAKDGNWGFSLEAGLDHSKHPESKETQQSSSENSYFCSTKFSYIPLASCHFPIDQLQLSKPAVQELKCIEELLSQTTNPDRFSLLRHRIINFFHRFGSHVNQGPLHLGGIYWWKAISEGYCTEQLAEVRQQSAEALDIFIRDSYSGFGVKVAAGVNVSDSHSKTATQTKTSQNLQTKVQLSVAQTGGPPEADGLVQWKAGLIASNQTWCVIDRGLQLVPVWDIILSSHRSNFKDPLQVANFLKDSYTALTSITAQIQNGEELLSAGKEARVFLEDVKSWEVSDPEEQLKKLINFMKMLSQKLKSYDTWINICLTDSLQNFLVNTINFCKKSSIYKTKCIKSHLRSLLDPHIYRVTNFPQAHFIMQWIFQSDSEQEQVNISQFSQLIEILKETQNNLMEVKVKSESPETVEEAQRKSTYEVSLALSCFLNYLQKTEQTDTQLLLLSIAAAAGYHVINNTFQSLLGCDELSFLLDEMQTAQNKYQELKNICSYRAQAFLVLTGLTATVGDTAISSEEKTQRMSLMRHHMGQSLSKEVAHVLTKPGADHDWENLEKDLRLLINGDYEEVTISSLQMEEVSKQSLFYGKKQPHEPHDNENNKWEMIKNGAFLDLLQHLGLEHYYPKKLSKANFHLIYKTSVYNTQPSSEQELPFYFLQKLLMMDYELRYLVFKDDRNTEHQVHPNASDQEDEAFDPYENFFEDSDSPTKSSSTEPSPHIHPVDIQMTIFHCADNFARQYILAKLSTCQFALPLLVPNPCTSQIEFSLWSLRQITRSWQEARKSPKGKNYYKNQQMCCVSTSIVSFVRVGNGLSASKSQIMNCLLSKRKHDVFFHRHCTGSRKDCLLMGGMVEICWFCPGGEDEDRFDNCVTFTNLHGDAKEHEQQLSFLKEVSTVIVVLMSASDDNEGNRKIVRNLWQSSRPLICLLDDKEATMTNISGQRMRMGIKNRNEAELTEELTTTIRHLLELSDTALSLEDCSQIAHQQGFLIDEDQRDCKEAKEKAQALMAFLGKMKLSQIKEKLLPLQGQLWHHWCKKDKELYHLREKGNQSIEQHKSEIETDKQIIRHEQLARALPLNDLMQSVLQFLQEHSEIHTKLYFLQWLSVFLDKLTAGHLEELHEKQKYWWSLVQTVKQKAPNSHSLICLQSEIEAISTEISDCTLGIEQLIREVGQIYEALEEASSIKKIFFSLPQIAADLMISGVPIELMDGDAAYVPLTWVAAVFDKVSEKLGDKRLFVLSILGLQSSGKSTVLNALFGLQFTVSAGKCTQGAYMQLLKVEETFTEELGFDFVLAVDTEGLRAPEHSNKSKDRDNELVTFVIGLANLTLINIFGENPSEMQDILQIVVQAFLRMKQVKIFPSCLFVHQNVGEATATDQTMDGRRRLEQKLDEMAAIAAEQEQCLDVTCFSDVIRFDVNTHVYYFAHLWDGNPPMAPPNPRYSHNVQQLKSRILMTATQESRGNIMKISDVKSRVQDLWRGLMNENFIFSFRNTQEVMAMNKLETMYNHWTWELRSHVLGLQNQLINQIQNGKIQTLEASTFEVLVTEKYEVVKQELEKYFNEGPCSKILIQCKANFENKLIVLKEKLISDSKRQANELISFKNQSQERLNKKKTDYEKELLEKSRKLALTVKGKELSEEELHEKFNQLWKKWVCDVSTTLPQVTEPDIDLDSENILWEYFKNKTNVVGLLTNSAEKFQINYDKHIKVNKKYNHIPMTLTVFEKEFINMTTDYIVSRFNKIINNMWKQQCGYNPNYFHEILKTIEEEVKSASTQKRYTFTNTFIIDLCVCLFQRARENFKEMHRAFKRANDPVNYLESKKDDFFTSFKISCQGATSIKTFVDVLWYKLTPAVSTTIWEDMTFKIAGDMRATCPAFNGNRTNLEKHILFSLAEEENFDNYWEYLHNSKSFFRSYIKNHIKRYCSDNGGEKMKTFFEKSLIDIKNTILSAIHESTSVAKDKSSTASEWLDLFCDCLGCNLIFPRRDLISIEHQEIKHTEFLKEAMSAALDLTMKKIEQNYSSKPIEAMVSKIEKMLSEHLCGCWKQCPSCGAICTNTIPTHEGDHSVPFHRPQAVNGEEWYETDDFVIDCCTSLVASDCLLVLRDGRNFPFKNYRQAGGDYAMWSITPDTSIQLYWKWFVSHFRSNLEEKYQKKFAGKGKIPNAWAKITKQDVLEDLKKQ
T2 sequence (Q14108 whole entry): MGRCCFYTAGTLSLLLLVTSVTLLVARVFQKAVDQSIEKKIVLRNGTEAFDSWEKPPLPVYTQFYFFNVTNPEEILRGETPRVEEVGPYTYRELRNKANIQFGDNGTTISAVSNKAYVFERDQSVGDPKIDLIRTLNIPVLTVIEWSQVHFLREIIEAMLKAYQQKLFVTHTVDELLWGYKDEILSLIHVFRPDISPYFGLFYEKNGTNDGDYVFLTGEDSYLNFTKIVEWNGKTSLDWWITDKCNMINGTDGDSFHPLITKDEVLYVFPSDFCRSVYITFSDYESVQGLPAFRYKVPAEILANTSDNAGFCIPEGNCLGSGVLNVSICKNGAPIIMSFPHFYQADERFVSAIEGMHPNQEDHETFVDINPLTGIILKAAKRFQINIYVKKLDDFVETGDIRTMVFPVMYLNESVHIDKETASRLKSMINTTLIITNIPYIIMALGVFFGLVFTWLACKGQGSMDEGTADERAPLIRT

COc1cc2c(NC3CCN(C(C)C)CC3)nc(C3CCCCC3)nc2cc1OCCCN1CCCC1 [UNC0638]
effect_CETSA_Intact (PISA amplitude), TGOLN2 [1]: 0.53 | effect_CETSA_Intact (PISA amplitude), SCARB2 [2]: 0.251 | stabilisation of CHKA (PISA) [3]: significant stabilisation of CHKA | effect_CETSA_Intact (PISA amplitude), CHKA [3]: 0.57 | effect_CETSA_Intact (PISA amplitude), GVINP1 [4]: 0.358

COc1cc2c(N(C)C3CCN(C(C)C)CC3)nc(C3CCCCC3)nc2cc1OCCCN1CCCC1 [UNC0737]
effect_CETSA_Intact (PISA amplitude), TGOLN2 [1]: 0.571 | effect_CETSA_Intact (PISA amplitude), SCARB2 [2]: 0.514 | stabilisation of CHKA (PISA) [3]: significant stabilisation of CHKA | effect_CETSA_Intact (PISA amplitude), CHKA [3]: 0.619 | effect_CETSA_Intact (PISA amplitude), GVINP1 [4]: 0.871
